Measured values published in US9642831B2, “Substituted chromanes and method of use” (AbbVie S.á.r.l., priority 2014, dated 2017).

Molecular target: F508delCFTR (Homo sapiens, UniProt P13569, DEL508-508)
Test: Cell Surface Expression-Horse Radish Peroxidase (CSE-HRP) assay
Format: cell-based
Set-up: expressed in transfected cells; host or cells: CFBE41o- human lung derived epithelial cell line, doxycycline-inducible
Conditions: CFBE4lo-F508delCFTR-HRP cells; for EC50: 18-24 hours at 33° C., 8-point curve, highest concentration 20 μM, luminescence readout; for Emax: maximum % activity at any tested concentration, normalized to on-plate positive control (3 μM Example 1)
Outline: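 Following 18-24 h compound exposure at 33° C. Expression was doxycycline-induced beforehand. % activity versus DMSO and a 3 μM corrector control gave maximum activity and EC50 from a variable-Hill sigmoidal fit.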

Sequence of F508delCFTR (P13569 with tags, fused parts or gaps DEL508-508): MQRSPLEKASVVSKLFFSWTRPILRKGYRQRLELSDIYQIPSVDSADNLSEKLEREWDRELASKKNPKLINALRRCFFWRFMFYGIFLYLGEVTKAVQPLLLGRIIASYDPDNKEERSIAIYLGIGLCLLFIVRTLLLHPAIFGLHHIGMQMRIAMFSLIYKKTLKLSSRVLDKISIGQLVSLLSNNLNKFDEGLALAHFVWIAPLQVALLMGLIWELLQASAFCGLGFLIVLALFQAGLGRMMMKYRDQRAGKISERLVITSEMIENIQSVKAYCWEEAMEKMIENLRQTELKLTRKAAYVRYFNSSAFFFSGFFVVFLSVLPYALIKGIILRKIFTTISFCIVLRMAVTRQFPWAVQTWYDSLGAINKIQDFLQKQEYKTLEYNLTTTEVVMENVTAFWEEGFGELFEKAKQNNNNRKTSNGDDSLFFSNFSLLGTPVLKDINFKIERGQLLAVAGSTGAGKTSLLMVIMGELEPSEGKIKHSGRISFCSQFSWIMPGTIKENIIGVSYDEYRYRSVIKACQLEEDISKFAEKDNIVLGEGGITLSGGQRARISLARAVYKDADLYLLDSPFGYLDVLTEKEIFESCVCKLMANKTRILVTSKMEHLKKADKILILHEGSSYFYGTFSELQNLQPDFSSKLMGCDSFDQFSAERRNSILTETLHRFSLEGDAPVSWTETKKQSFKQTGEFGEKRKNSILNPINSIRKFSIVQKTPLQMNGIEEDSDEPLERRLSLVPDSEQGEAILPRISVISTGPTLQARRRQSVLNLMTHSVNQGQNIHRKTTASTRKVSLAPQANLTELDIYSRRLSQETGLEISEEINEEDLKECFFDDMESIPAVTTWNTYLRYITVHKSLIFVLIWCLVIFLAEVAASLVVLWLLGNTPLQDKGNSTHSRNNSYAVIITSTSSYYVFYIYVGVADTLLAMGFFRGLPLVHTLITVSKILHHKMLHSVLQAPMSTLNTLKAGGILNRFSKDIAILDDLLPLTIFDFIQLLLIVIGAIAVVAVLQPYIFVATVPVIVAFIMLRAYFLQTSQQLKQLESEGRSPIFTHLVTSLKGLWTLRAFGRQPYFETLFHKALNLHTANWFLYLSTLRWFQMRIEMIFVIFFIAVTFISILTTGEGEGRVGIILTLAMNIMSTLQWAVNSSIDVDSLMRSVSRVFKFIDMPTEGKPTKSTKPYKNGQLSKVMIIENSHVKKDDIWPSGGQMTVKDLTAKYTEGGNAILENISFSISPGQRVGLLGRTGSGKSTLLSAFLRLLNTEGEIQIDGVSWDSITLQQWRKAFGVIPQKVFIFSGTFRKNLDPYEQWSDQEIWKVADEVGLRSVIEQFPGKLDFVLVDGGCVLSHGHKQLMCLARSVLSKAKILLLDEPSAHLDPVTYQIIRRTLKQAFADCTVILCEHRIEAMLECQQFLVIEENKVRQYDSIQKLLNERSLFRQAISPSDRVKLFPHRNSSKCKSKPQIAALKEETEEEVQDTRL

| Compound | EC50 [nM] | Emax [%] |
| --- | --- | --- |
| O=C(O)c1ccc([C@H]2C[C@H](NC(=O)C3(c4ccc5c(c4)OC(F)(F)O5)CC3)c3ccccc3O2)nc1 (racemic) [Example 153, rac-6-[(2R,4S)-4-({[1-(2,2-difluoro-1,3-benzodioxol-5-yl)cyclopropyl]carbonyl}amino)-3,4-dihydro-2H-chromen-2-yl]pyridine-3-carboxylic acid] | 1900 | 84 |
| O=C(NC1CC(c2cccc(Cl)c2)Oc2ccccc21)C1(c2ccc3c(c2)OC(F)(F)O3)CC1 (stereo not drawn) [Example 70, N-[2-(3-chlorophenyl)-3,4-dihydro-2H-chromen-4-yl]-1-(2,2-difluoro-1,3-benzodioxol-5-yl)cyclopropanecarboxamide] | 6840 | 94 |
| COc1ccc2c(c1)O[C@@H](C(=O)N1CCC(C(=O)O)C1)C[C@@H]2NC(=O)C1(c2ccc3c(c2)OC(F)(F)O3)CC1 (mixture of isomers) [Example 201, rac-1-{[(2R,4S)-4-({[1-(2,2-difluoro-1,3-benzodioxol-5-yl)cyclopropyl]carbonyl}amino)-7-methoxy-3,4-dihydro-2H-chromen-2-yl]carbonyl}pyrrolidine-3-carboxylic acid] | 7920 | 35 |
| Cc1ccc2c(c1)O[C@@H](c1cccc(C(=O)NCC(O)C(F)(F)F)c1)C[C@H]2NC(=O)C1(c2ccc3c(c2)OC(F)(F)O3)CC1 (stereo partly drawn) [Example 50, 3-[(2R,4R)-4-({[1-(2,2-difluoro-1,3-benzodioxol-5-yl)cyclopropyl]carbonyl}amino)-7-methyl-3,4-dihydro-2H-chromen-2-yl]-N-(3,3,3-trifluoro-2-hydroxypropyl)benzamide] | 860 | 101 |
| COc1ccc2c(c1)OC(c1ccccc1)CC2NC(=O)C1(c2ccc3c(c2)OC(F)(F)O3)CC1 (stereo not drawn) [Example 60, 1-(2,2-difluoro-1,3-benzodioxol-5-yl)-N-(7-methoxy-2-phenyl-3,4-dihydro-2H-chromen-4-yl)cyclopropanecarboxamide] | 700 | 131 |
| CCOC(=O)c1ccc([C@H]2C[C@@H](NC(=O)C3(c4ccc5c(c4)OC(F)(F)O5)CC3)c3ccccc3O2)nc1 (racemic) [Example 150, ethyl rac-6-[(2R,4R)-4-({[1-(2,2-difluoro-1,3-benzodioxol-5-yl)cyclopropyl]carbonyl}amino)-3,4-dihydro-2H-chromen-2-yl]pyridine-3-carboxylate] | 420 | 106 |
| COc1ccc2c(c1)OC(C1CN(S(C)(=O)=O)C1)CC2NC(=O)C1(c2ccc3c(c2)OC(F)(F)O3)CC1 (mixture of isomers) [Example 117, 1-(2,2-difluoro-1,3-benzodioxol-5-yl)-N-{7-methoxy-2-[1-(methylsulfonyl)azetidin-3-yl]-3,4-dihydro-2H-chromen-4-yl}cyclopropanecarboxamide] | 6010 | 82 |
| COC(=O)c1cccc([C@H]2C[C@H](NC(=O)C3(c4ccc5c(c4)OC(F)(F)O5)CC3)c3ccc(OC)cc3O2)c1 [Example 5, methyl 3-[(2R,4S)-4-({[1-(2,2-difluoro-1,3-benzodioxol-5-yl)cyclopropyl]carbonyl}amino)-7-methoxy-3,4-dihydro-2H-chromen-2-yl]benzoate] | 2450 | 92 |
| O=C(O)c1cccc([C@H]2C[C@H](NC(=O)C3(c4ccc5c(c4)OC(F)(F)O5)CC3)c3ccccc3O2)c1 [Example 10, 3-[(2R,4S)-4-({[1-(2,2-difluoro-1,3-benzodioxol-5-yl)cyclopropyl]carbonyl}amino)-3,4-dihydro-2H-chromen-2-yl]benzoic acid] | 4100 | 112 |
| COc1ccc2c(c1)O[C@@H](C(=O)NC1(C(F)(F)F)COC1)C[C@H]2NC(=O)C1(c2ccc3c(c2)OC(F)(F)O3)CC1 (racemic) [Example 173, rac-(2R,4R)-4-({[1-(2,2-difluoro-1,3-benzodioxol-5-yl)cyclopropyl]carbonyl}amino)-7-methoxy-N-[3-(trifluoromethyl)oxetan-3-yl]-3,4-dihydro-2H-chromene-2-carboxamide] | 2150 | 27 |
| COC(=O)c1cccc([C@H]2C[C@H](NC(=O)C3(c4ccc5c(c4)OC(F)(F)O5)CC3)c3cc(C)ccc3O2)c1 [Example 12, methyl 3-[(2R,4S)-4-({[1-(2,2-difluoro-1,3-benzodioxol-5-yl)cyclopropyl]carbonyl}amino)-6-methyl-3,4-dihydro-2H-chromen-2-yl]benzoate] | 5470 | 58 |
| CCCN(CCO)C(=O)[C@H]1C[C@H](NC(=O)C2(c3ccc4c(c3)OC(F)(F)O4)CC2)c2ccc(OC)cc2O1 (racemic) [Example 183, rac-(2R,4S)-4-({[1-(2,2-difluoro-1,3-benzodioxol-5-yl)cyclopropyl]carbonyl}amino)-N-(2-hydroxyethyl)-7-methoxy-N-propyl-3,4-dihydro-2H-chromene-2-carboxamide] | 860 | 67 |
| O=C(N[C@@H]1CC(CF)(CF)Oc2ccccc21)C1(c2ccc3c(c2)OC(F)(F)O3)CC1 [Example 75, N-[(4R)-2,2-bis(fluoromethyl)-3,4-dihydro-2H-chromen-4-yl]-1-(2,2-difluoro-1,3-benzodioxol-5-yl)cyclopropanecarboxamide] | 3280 | 75 |
| COc1ccc2c(c1)O[C@@H](C1CCCC(C(=O)O)C1)C[C@H]2NC(=O)C1(c2ccc3c(c2)OC(F)(F)O3)CC1 (stereo partly drawn) [Example 35, 3-[(2R,4R)-4-({[1-(2,2-difluoro-1,3-benzodioxol-5-yl)cyclopropyl]carbonyl}amino)-7-methoxy-3,4-dihydro-2H-chromen-2-yl]cyclohexanecarboxylic acid] | 1160 | 82 |
| CCOC(=O)[C@H]1C[C@H](NC(=O)C2(c3ccc4c(c3)OC(F)(F)O4)CC2)c2ccc(OC)cc2O1 (racemic) [Example 130, Ethyl rac-(2R,4S)-4-({[1-(2,2-difluoro-1,3-benzodioxol-5-yl)cyclopropyl]carbonyl}amino)-7-methoxy-3,4-dihydro-2H-chromene-2-carboxylate] | 2560 | 79 |
| COc1ccc2c(c1)O[C@@H](c1nc(C(=O)O)cs1)C[C@H]2NC(=O)C1(c2ccc3c(c2)OC(F)(F)O3)CC1 (stereo in doubt) [Example 156, rel-2-[(2R,4R)-4-({[1-(2,2-difluoro-1,3-benzodioxol-5-yl)cyclopropyl]carbonyl}amino)-7-methoxy-3,4-dihydro-2H-chromen-2-yl]-1,3-thiazole-4-carboxylic acid] | 1230 | 112 |
| CC1(C)C[C@@H](NC(=O)C2(c3ccc4c(c3)OC(F)(F)O4)CC2)c2ccc(F)c(Cl)c2O1 [Example 90, N-[(4R)-8-chloro-7-fluoro-2,2-dimethyl-3,4-dihydro-2H-chromen-4-yl]-1-(2,2-difluoro-1,3-benzodioxol-5-yl)cyclopropanecarboxamide] | 3440 | 42 |
| COC(=O)c1ccc([C@H]2C[C@@H](NC(=O)C3(c4ccc5c(c4)OC(F)(F)O5)CC3)c3ccc(OC)cc3O2)cc1F [Example 137, methyl 4-[(2R,4R)-4-({[1-(2,2-difluoro-1,3-benzodioxol-5-yl)cyclopropyl]carbonyl}amino)-7-methoxy-3,4-dihydro-2H-chromen-2-yl]-2-fluorobenzoate] | 140 | 131 |
| COC(=O)C12CC([C@H]3C[C@@H](NC(=O)C4(c5ccc6c(c5)OC(F)(F)O6)CC4)c4ccc(OC)cc4O3)(C1)C2 (racemic) [Example 147, methyl rac-3-[(2R,4R)-4-({[1-(2,2-difluoro-1,3-benzodioxol-5-yl)cyclopropyl]carbonyl}amino)-7-methoxy-3,4-dihydro-2H-chromen-2-yl]bicyclo[1.1.1]pentane-1-carboxylate] | 2040 | 78 |
| COC(=O)c1cccc([C@H]2C[C@H](NC(=O)C3(c4ccc5c(c4)OC(F)(F)O5)CC3)c3ccc(C)cc3O2)c1 [Example 17, methyl 3-[(2R,4S)-4-({[1-(2,2-difluoro-1,3-benzodioxol-5-yl)cyclopropyl]carbonyl}amino)-7-methyl-3,4-dihydro-2H-chromen-2-yl]benzoate] | 2640 | 78 |
| COC(=O)c1ccc([C@@H]2C[C@H](NC(=O)C3(c4ccc5c(c4)OC(F)(F)O5)CC3)c3ccc(OC)cc3O2)nc1 (stereo in doubt) [Example 161, methyl rel-6-[(2S,4S)-4-({[1-(2,2-difluoro-1,3-benzodioxol-5-yl)cyclopropyl]carbonyl}amino)-7-methoxy-3,4-dihydro-2H-chromen-2-yl]pyridine-3-carboxylate] | 2260 | 82 |
| COc1ccc2c(c1)O[C@@H](c1cccnc1)C[C@H]2NC(=O)C1(c2ccc3c(c2)OC(F)(F)O3)CC1 (racemic) [Example 57, rac-1-(2,2-difluoro-1,3-benzodioxol-5-yl)-N-[(2R,4R)-7-methoxy-2-(pyridin-3-yl)-3,4-dihydro-2H-chromen-4-yl]cyclopropanecarboxamide] | 1690 | 112 |
| COC(=O)c1ccc([C@H]2C[C@@H](NC(=O)C3(c4ccc5c(c4)OC(F)(F)O5)CC3)c3ccc(O)cc3O2)cc1 [Example 127, methyl 4-[(2R,4R)-4-({[1-(2,2-difluoro-1,3-benzodioxol-5-yl)cyclopropyl]carbonyl}amino)-7-hydroxy-3,4-dihydro-2H-chromen-2-yl]benzoate] | 2810 | 65 |
| COc1ccc2c(c1)O[C@@H](c1cccnc1)C[C@@H]2NC(=O)C1(c2ccc3c(c2)OC(F)(F)O3)CC1 (racemic) [Example 22, rac-1-(2,2-difluoro-1,3-benzodioxol-5-yl)-N-[(2R,4S)-7-methoxy-2-(pyridin-3-yl)-3,4-dihydro-2H-chromen-4-yl]cyclopropanecarboxamide] | 1770 | 109 |
